Assay results: patent publication US20240402196A1 (Exact Sciences Corporation, priority 2018, published 2024)

Key:
[1] = biological target: T1, hemoglobin (Homo sapiens, UniProt P68871+P69905); experiment: Appendix B additive screen in Hb Collection Buffer, % Hb Recovery
T1 construct: To assess the stability of hemoglobin in stool samples, samples were exposed to simulated shipping stress conditions; from tissue; host or cells: stool samples

[2] = biological target: T2, hemoglobin in stool samples (Homo sapiens, UniProt P68871+P69905); experiment: Accelerated shipping simulation (35C 16 hour challenge), hemoglobin % recovery by ELISA; parameters: from tissue; host or cells: stool samples; conditions: for Results: additive concentration 5 uM;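 as to all read-outs here: stool hemoglobin measured by ELISA before and after thermal-cycler shipping stress, stability given as percent of pre-stress hemoglobin recovered afterwards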
[3] = biological target: T2, hemoglobin in stool samples; experiment: 7-Day shipping simulation, hemoglobin % recovery by ELISA; parameters: from tissue; host or cells: stool samples; conditions: concentrations and buffer pH 6.5 or 7.4 as in the 14th table
Description: (§1) To assess the stability of hemoglobin in stool samples, samples were exposed to simulated shipping stress conditions using a thermal cycler. […] An ELISA based detection method is used to determine the hemoglobin concentrations of samples before and after exposure to the shipping simulation. Hemoglobin stability is calculated as a % recovery of hemoglobin after the samples have been exposed to the shipping simulation.
To assess the stability of hemoglobin in stool samples beyond 3 days, a 7-Day shipping simulation was created.

[4] = biological target: T2, hemoglobin in stool samples; experiment: 3-Day shipping simulation, hemoglobin % recovery by ELISA; parameters: from tissue; host or cells: stool samples;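 also: stool samples put through shipping stress in a thermal cycler, hemoglobin quantified by ELISA before and after, stability given as post-stress % of the pre-stress level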
[5] = biological target: T2, hemoglobin in stool samples; experiment: 3-Day extreme temperature shipping simulation, hemoglobin % recovery by ELISA; parameters: from tissue; host or cells: stool samples
Description: as §1
As an additional challenge, a shipping simulation meant to represent a “worst case” scenario was created using extreme temperatures.

[6] = biological target: T3, hemoglobin (Hb) (Homo sapiens, UniProt P68871+P69905); experiment: Appendix B: additives in Hb Collection Buffer, % Hb Recovery
T3 construct: To assess the stability of hemoglobin in stool samples, samples were exposed to simulated shipping stress conditions; from tissue; host or cells: stool samples

[7] = biological target: T2, hemoglobin in stool samples; experiment: 7-Day modified shipping simulation, hemoglobin % recovery by ELISA; parameters: from tissue; host or cells: stool samples
[8] = biological target: T2, hemoglobin in stool samples; experiment: Accelerated shipping simulation (35C 16 hour challenge), hemoglobin % recovery by ELISA; parameters: To assess the stability of hemoglobin in stool samples, samples were exposed to simulated shipping stress conditions; from tissue; host or cells: stool samples

T3 sequence (P69905 2-142 limits assumed): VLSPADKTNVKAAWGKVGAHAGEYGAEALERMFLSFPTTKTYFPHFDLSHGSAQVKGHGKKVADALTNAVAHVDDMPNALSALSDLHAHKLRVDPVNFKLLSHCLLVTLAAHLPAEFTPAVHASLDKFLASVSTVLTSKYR
T3 sequence (P68871 2-147 limits assumed): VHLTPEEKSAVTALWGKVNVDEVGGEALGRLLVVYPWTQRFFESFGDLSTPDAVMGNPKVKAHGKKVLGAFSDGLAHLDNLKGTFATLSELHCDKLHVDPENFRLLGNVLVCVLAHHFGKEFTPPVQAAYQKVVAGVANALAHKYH
T2 sequence (P69905 2-142 limits assumed): as the sequence (P69905 2-142 limits assumed) above
T2 sequence (P68871 2-147 limits assumed): as the sequence (P68871 2-147 limits assumed) above
T1 sequence (P69905 2-142 limits assumed): as the sequence (P69905 2-142 limits assumed) above
T1 sequence (P68871 2-147 limits assumed): as the sequence (P68871 2-147 limits assumed) above

O=NO [Sodium Nitrite]
Results [1]: No Improvement

C=Cc1c(C)c2cc3[nH]c(cc4nc(cc5nc(cc1[nH]2)C(C)=C5CCC(=O)[O-])C(CCC(=O)[O-])=C4C)c(C)c3C=C.[Co+2] [Protoporphyrin IX Co, Protoporphyrin IX Cobalt]
Notes (Hb stability vs Hb Collection Buffer) ([2]; 35C 16 hour challenge, concentrations and pH as in the 19th table): Improved Hb | Hb stability (in words) ([2]; 35C 16 hour challenge, concentrations of 2.5-10 μM, adjusted pH range of 6.2-7.4): increased Hb stability | Results [2]: Improvement in % Hb | Results ([2]; pH 6.5): Improvement | Results ([2]; pH 7.4): Improvement | Notes (Hb stability vs Hb Collection Buffer) [3]: Improved | Notes (Hb stability vs Hb Collection Buffer) ([4]; 3-Day and 7-Day Shipping Simulation, concentrations and pH as in the 18th table): Improved Hb | Hb stability (in words) ([4]; 3 and 7 day Shipping Simulations, concentrations of 2.5-10 µM, adjusted pH of 6.8): increased Hb stability | Notes (Hb stability vs Hb Collection Buffer) ([4]; concentrations and buffer pH 6.5 or 7.4 as in the 13th table): Improved | Hb stability compared to the Polymedco buffer (in words) ([5]; additive in Hb Collection Buffer): improved Hb stability compared to the Polymedco buffer | Notes (Hb stability vs Hb Collection Buffer) ([5]; concentrations and buffer pH 6.5 or 7.4 as in the 15th table): Improved | Results ([6]; Additive Concentration 0.1 uM): No Improvement | Results ([6]; additive concentration 5 uM): Improvement in % Hb | Results ([6]; additive concentration 10 uM): Improvement in % Hb | Notes (Hb stability vs Hb Collection Buffer) ([7]; 3-6 μM, buffer pH 6.4-7.0 as in the 17th table): Improved Hb | Hb stability (in words) ([7]; concentrations of 3-6 μM, adjusted pH range of 6.4-7.0): increased Hb stability

O=C(O)[C@@H](CO)O[C@@H]1O[C@H](CO)[C@@H](O)[C@H](O)[C@@H]1O
Results ([8]; additive concentration 0.377 mM): No Improvement | Results ([8]; additive concentration 1 mM): No Improvement

O=C(O)c1cccnc1 [Vitamin B3]
Results [1]: No Improvement
